In article PMC8303988, “Cholate Disrupts Regulatory Functions of Cytochrome c Oxidase” (Cells, 2021):

System: T1, cholate-CytOx; isolated cytochrome c oxidase from bovine heart
T1 construct: gene MT-CO1; with Cytochrome c oxidase subunit 1; Cytochrome c oxidase subunit 2; Cytochrome c oxidase subunit 3; Cytochrome c oxidase subunit 5A, mitochondrial; Cytochrome c oxidase subunit 5B, mitochondrial; Cytochrome c oxidase subunit 6A2, mitochondrial; Cytochrome c oxidase subunit 6B1; Cytochrome c oxidase subunit 6C; Cytochrome c oxidase subunit 7A1, mitochondrial; Cytochrome c oxidase subunit 7B, mitochondrial; Cytochrome c oxidase subunit 7C, mitochondrial; Cytochrome c oxidase subunit 8B, mitochondrial
Assay: UV/VIS absorption spectroscopy, displacement of bound cholate by ADP
Type: binding, Bos taurus
Details: 0 °C, pH 7.4; cholate bound during purification; nucleotide sites

For C[C@H](CCC(=O)O)[C@H]1CC[C@H]2[C@@H]3[C@H](O)C[C@@H]4C[C@H](O)CC[C@]4(C)[C@H]3C[C@H](O)[C@]12C [cholate], the “UV/VIS absorption spectroscopy, displacement of bound cholate by ADP” value was “exchange of cholate by ADP is a very slow process with a half-time of about”.
